From patent publication US9193722B2, “Tri-cyclic pyrazolopyridine kinase inhibitors” (Vertex Pharmaceuticals Incorporated, priority 2008, dated 2015)

Key:
Format in all cases: biochemical
PKC theta kinase = PKC theta kinase (Homo sapiens, UniProt Q04759); test: PKC theta kinase inhibition, coupled-enzyme (NADH absorbance) assay, Ki; conditions: 240 μM ATP, 18 nM PKC theta kinase, 30° C.
Procedure, shortened: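 Coupled-enzyme kinase assay following NADH absorbance at 340 nm, in 100 mM HEPES pH 7.5, 10 mM MgCl2, 25 mM NaCl, 0.1 mM EDTA, 0.01% Brij. Compound in DMSO preincubated with enzyme 10 min at 30 °C. Ki from initial rates by non-linear regression.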

PKC delta kinase = PKC delta kinase (Homo sapiens, UniProt Q05655); test: PKC delta kinase inhibition, coupled-enzyme (NADH absorbance) assay, Ki; conditions: 150 μM ATP, 46 nM PKC delta kinase, 30° C.; read-out: Ki PKC delta
Sequence of PKC delta kinase (Q05655 whole entry): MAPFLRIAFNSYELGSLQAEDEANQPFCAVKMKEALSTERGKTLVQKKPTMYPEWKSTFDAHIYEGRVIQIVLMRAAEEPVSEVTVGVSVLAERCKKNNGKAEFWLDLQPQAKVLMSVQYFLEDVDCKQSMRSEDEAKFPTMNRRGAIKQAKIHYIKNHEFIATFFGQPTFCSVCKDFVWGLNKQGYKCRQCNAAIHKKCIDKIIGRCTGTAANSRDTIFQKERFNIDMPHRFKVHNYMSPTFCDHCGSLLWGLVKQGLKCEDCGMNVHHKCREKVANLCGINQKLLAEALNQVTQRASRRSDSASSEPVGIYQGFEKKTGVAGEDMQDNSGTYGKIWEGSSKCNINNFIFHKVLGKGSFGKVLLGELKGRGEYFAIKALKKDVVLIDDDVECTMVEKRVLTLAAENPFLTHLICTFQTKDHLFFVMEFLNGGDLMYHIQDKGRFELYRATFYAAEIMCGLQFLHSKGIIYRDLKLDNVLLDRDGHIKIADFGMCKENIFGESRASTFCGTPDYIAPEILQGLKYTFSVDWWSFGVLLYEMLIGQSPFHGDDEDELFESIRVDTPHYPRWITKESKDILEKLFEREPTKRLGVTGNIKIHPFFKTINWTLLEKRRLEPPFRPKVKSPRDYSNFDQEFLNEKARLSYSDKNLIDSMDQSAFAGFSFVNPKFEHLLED
Procedure, shortened: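 PKC delta in 100 mM HEPES pH 7.5, 10 mM MgCl2, 25 mM NaCl, 0.1 mM EDTA, 0.01% Brij, equilibrated 10 min at 30° C with compound from DMSO stock. Started with ATP at 150 μM final; NADH-coupled absorbance at 340 nm followed 15 min at 30° C. Ki from initial rates by non-linear regression.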

PKC alpha kinase = PKC alpha kinase (Homo sapiens, UniProt P17252); test: PKC alpha kinase inhibition, coupled-enzyme (NADH absorbance) assay, Ki; conditions: 130 μM ATP, 4.5 nM PKC alpha kinase, 30° C.
Procedure, shortened: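 Enzyme in 100 mM HEPES pH 7.5, 10 mM MgCl2, 100 μM CaCl2, 0.01% Brij, preincubated with compound 10 min at 30 °C. Reaction started with 130 μM ATP (final); NADH consumption followed at 340 nm for 15 min at 30 °C. Ki fitted by non-linear regression of initial rates.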

Sequence of PKC theta kinase (Q04759 whole entry): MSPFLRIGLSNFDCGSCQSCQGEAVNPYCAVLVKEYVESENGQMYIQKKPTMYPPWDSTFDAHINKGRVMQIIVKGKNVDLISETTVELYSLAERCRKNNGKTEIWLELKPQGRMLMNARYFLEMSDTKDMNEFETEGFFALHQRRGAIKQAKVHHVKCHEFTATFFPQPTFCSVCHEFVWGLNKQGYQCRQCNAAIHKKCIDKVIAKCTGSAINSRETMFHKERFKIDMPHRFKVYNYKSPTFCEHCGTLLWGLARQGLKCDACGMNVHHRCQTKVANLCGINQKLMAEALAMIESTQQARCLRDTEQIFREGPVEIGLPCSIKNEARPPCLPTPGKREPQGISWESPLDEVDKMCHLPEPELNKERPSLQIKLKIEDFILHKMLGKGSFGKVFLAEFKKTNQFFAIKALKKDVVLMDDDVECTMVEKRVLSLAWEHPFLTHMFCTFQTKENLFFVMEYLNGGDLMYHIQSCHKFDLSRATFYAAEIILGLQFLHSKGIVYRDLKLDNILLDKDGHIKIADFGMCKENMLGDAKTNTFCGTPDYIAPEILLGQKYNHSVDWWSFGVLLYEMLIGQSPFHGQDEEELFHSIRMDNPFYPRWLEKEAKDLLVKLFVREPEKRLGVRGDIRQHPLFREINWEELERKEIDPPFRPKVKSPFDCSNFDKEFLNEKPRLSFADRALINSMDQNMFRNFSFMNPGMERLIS

Ki (PKC theta kinase)	Ki (PKC delta kinase)	Ki (PKC alpha kinase)	SMILES
< 500 nM	> 1250 nM	> 1250 nM	NC[C@@H]1CCN(c2ccc(F)c(-c3n[nH]c4ncccc34)n2)C1 [Compound 357]
< 500 nM	> 1250 nM	> 1250 nM	FC(F)(F)c1ccnc2[nH]nc(-c3cccc(N4CCNCC4)n3)c12 [Compound 191]
< 50 nM	< 500 nM	> 1250 nM	CC(C)C(C)C1CN(c2ccc(F)c(-c3n[nH]c4ncccc34)n2)CCN1 (stereo not drawn) [Compound 238]
> 700 nM	> 1250 nM	> 1250 nM	CS(=O)(=O)NCC1CCCN(c2ccc(F)c(-c3n[nH]c4ncccc34)n2)C1 (stereo not drawn) [Compound 371]
< 500 nM	< 500 nM	< 2800 nM	NC1CCCN(c2cccc(-c3n[nH]c4ncccc34)n2)C1 (stereo not drawn) [Compound 68]
< 50 nM	< 2800 nM	< 2800 nM	CC(C)=CC1CN(c2ccc(C(F)(F)F)c(-c3n[nH]c4ncccc34)n2)CCN1 (stereo not drawn) [Compound 104]
< 50 nM	> 1250 nM	> 1250 nM	CC(C)C(N)[C@H]1CCCN(c2ccc(F)c(-c3n[nH]c4ncccc34)n2)C1 (stereo partly drawn) [Compound 270]
< 1 nM	< 500 nM	< 2800 nM	CC(C)(F)C(C)(O)C1CN(c2ccc(F)c(-c3n[nH]c4ncccc34)n2)CCN1 (stereo not drawn) [Compound 248]
> 700 nM	> 1250 nM	> 1250 nM	OC1(C2CN(c3ccc(C(F)(F)F)c(-c4n[nH]c5ncccc45)n3)CCN2)COC1 (stereo not drawn) [Compound 233]
< 500 nM	< 2800 nM	> 1250 nM	FC(F)(F)C1CN(c2cccc(-c3n[nH]c4ncccc34)n2)CCN1 (stereo not drawn) [Compound 25]
< 50 nM	< 500 nM	< 2800 nM	FC(F)(F)CC1CN(c2cccc(-c3n[nH]c4ncccc34)n2)CCN1 (stereo not drawn) [Compound 28]
< 500 nM	> 2000 nM	< 2800 nM	Cc1ccc(C2CN(c3cccc(-c4n[nH]c5ncccc45)n3)CCN2)cc1 (stereo not drawn) [Compound 17]
< 500 nM	> 1250 nM	> 1250 nM	CC(C)CC1CN(c2ccc(C(F)(F)F)c(-c3n[nH]c4ncccc34)n2)CCC1C#N (stereo not drawn) [Compound 337]
< 50 nM	< 2800 nM	< 2800 nM	Cc1cccc(C2CN(c3ccc(C(F)(F)F)c(-c4n[nH]c5ncccc45)n3)CCN2)c1 (stereo not drawn) [Compound 134]
< 50 nM	< 500 nM	< 2800 nM	CC(C)C[C@H]1CN(c2cc(CO)cc(-c3n[nH]c4ncccc34)n2)CCN1 [Compound 451]
< 500 nM	< 2800 nM	< 2800 nM	CC(C)CC1(CO)CN(c2ccc(C(F)(F)F)c(-c3n[nH]c4ncccc34)n2)CCC1N (stereo not drawn) [Compound 411]
< 50 nM	< 500 nM	< 2800 nM	CC(C)C[C@H]1CN(c2ccc(F)c(-c3n[nH]c4ncccc34)n2)C[C@@H](C)N1 [Compound 183]
< 500 nM	> 1250 nM	> 1250 nM	CC(C)C(N)C1CN(c2ccc(C(F)(F)F)c(-c3n[nH]c4ncccc34)n2)CCO1 (stereo not drawn) [Compound 348]
< 50 nM	> 1250 nM	> 1250 nM	CC(C)C[C@H]1CN(c2ccc(C(F)(F)F)c(-c3n[nH]c4ncccc34)n2)CCN1 [Compound 4, (S)-3-(6-(3-isobutylpiperazin-1-yl)-3-(trifluoromethyl)pyridin-2-yl)-1H-pyrazolo[3,4-b]pyridine]
> 700 nM	> 1250 nM	> 1250 nM	Fc1ccc(N2CCC3(CCNC3)C2)nc1-c1n[nH]c2ncccc12 (stereo not drawn) [Compound 312]
> 700 nM	> 1250 nM	> 1250 nM	NC(=O)C1(N)CCN(c2ccc(C(F)(F)F)c(-c3n[nH]c4ncccc34)n2)CC1 [Compound 398]
> 700 nM	> 2000 nM	> 1250 nM	c1ccc(-c2ccc(N3CCNCC3)nc2-c2n[nH]c3ncccc23)cc1 [Compound 50]
< 50 nM	< 500 nM	> 1250 nM	CCC(C)(O)C1CN(c2ccc(F)c(-c3n[nH]c4ncccc34)n2)CCN1 (stereo not drawn) [Compound 242]
< 50 nM	< 500 nM	> 1250 nM	OC1(C2CN(c3ccc(F)c(-c4n[nH]c5ncccc45)n3)CCN2)CCC1 (stereo not drawn) [Compound 240]
< 50 nM	> 1250 nM	> 1250 nM	Fc1ccc(N2CCN[C@@H](CC3CC3)C2)nc1-c1n[nH]c2ncccc12 [Compound 163]
> 700 nM	> 1250 nM	> 1250 nM	NCC1CCN(c2ccc(C(F)(F)F)c(-c3n[nH]c4ncccc34)n2)CC1 [Compound 127]
> 700 nM	> 1250 nM	> 1250 nM	Fc1ccc(N2CCC(F)CC2)nc1-c1n[nH]c2ncccc12 [Compound 267]

Ki (PKC theta kinase)	Ki (PKC delta kinase)	Ki (PKC alpha kinase)	SMILES
> 700 nM	> 2000 nM	> 1250 nM	CC(=O)N1CCN(c2cccc(-c3n[nH]c4ncccc34)n2)CC1 [Compound 20]
< 50 nM	< 500 nM	< 2800 nM	CC(C)(C)C[C@H]1CN(c2ccc(Cl)c(-c3n[nH]c4ncccc34)n2)CCN1 [Compound 141]
< 500 nM	< 500 nM	< 500 nM	Clc1cnc2[nH]nc(-c3cccc(N4CCNCC4)n3)c2c1 [Compound 42]
< 50 nM	< 500 nM	> 1250 nM	CC(C)C(C)(O)C1CN(c2nc(-c3n[nH]c4ncccc34)ccc2F)CCN1 (stereo not drawn) [Compound 374]
< 500 nM	> 1250 nM	> 1250 nM	CC(C)CC1CN(c2cc(C(F)(F)F)cc(-c3n[nH]c4ncccc34)n2)CCC1N (stereo not drawn) [Compound 419]
< 50 nM	< 500 nM	< 2800 nM	Fc1ccc(N2CCNC(C3CC3)C2)nc1-c1n[nH]c2ncccc12 (stereo not drawn) [Compound 220]
< 2800 nM	> 2000 nM	> 1250 nM	CNC1CCN(c2cccc(-c3n[nH]c4ncccc34)n2)C1 (stereo not drawn) [Compound 24]
< 500 nM	< 2800 nM	> 1250 nM	C=Cc1ccc(N2CCNCC2)nc1-c1n[nH]c2ncccc12 [Compound 52]
< 500 nM	> 2000 nM	> 1250 nM	CC[C@H]1CN(c2cccc(-c3n[nH]c4ncccc34)n2)C[C@H](CC(C)C)N1 [Compound 12]
< 500 nM	< 2800 nM	> 1250 nM	Cc1cc(N2CCN[C@@H](CC(C)C)C2)nc(-c2n[nH]c3ncccc23)c1Cl [Compound 58]
< 500 nM	> 2000 nM	> 1250 nM	CN1CCN(c2cccc(-c3n[nH]c4ncccc34)n2)CC1 [Compound 26]
> 700 nM	> 2000 nM	> 1250 nM	OC1CCN(c2cccc(-c3n[nH]c4ncccc34)n2)CC1 [Compound 22]
> 700 nM	> 1250 nM	> 1250 nM	OCC1CCCN(c2ccc(C(F)(F)F)c(-c3n[nH]c4ncccc34)n2)C1 (stereo not drawn) [Compound 258]
> 700 nM	> 2000 nM	> 1250 nM	Cc1cc(C)c(CC2CN(c3cccc(-c4n[nH]c5ncccc45)n3)CCN2)c(C)c1 (stereo not drawn) [Compound 69]
< 50 nM	< 500 nM	> 1250 nM	COC(C)(C)C1CN(c2cccc(-c3n[nH]c4ncccc34)n2)CCN1 (stereo not drawn) [Compound 181]
> 700 nM	> 2000 nM	> 1250 nM	CC(C)C[C@H]1CN(c2ccc(C(F)(F)F)c(-c3n[nH]c4ncccc34)n2)CC[C@@H]1O [Compound 90]
< 2800 nM	> 2000 nM	> 1250 nM	NC1CN(c2cccc(-c3n[nH]c4ncccc34)n2)C1 [Compound 63]
> 700 nM	> 2000 nM	> 1250 nM	FC(F)(F)c1cc(-c2n[nH]c3ncccc23)nc(N2CCNCC2)c1 [Compound 94]
> 700 nM	> 1250 nM	> 1250 nM	CNC(=O)C1CN(c2ccc(C(F)(F)F)c(-c3n[nH]c4ncccc34)n2)CCN1 (stereo not drawn) [Compound 214]
< 2800 nM	> 1250 nM	> 1250 nM	NCC1CN(c2cc(C(F)(F)F)cc(-c3n[nH]c4ncccc34)n2)C1 [Compound 433]
< 50 nM	< 2800 nM	> 1250 nM	c1ccc(C[C@H]2CN(c3cccc(-c4n[nH]c5ncccc45)n3)CCN2)cc1 [Compound 37]
< 500 nM	> 1250 nM	> 1250 nM	CC(C)C[C@H]1CN(c2ccc(C(F)(F)F)c(-c3n[nH]c4ncccc34)n2)CCCN1 [Compound 224]
< 50 nM	< 500 nM	> 1250 nM	OC1(C2CN(c3ccc(F)c(-c4n[nH]c5ncccc45)n3)CCN2)CCCC1 (stereo not drawn) [Compound 245]
< 50 nM	< 500 nM	< 500 nM	CCCC1(C)CN(c2ccc(C(F)(F)F)c(-c3n[nH]c4ncccc34)n2)CCC1N (stereo not drawn) [Compound 435]
< 2800 nM	> 1250 nM	> 1250 nM	NC[C@@H]1CCN(c2cc(C(F)(F)F)cc(-c3n[nH]c4ncccc34)n2)C1 [Compound 420]
< 500 nM	< 2800 nM	> 1250 nM	CC(C)C(C)(N)C1CCCN(c2ccc(F)c(-c3n[nH]c4ncccc34)n2)C1 (stereo not drawn) [Compound 292]
